In US20200375954A1, “THERAPEUTIC AGENT FOR FOOD COMPETENCE DISORDER IN STOMACH” (ZERIA PHARMACEUTICAL CO., LTD., priority 2002, published 2020):
Counter-ions that a name gives are not always drawn.

Columns and labels:
[1] = test system: adult male mongrel dog (gastric fundus); test: Barostat test in dog; assay type: in vivo; settings: for Volume change of Air-bag / Activity of alleviating impaired gastric accommodation (in words): i.v.; for Volume change of Air-bag: 5 minutes after liquid test meal, mean air-bag volume after vs before agent, mean ± standard error; for Volume increase of air-bag, ΔmL: method of Example 1, N=1; for Activity of alleviating impaired gastric accommodation (in words): barostat test in dog
Description: A gastric fistula (KN-365, D-14-C from Natsume Seisakusyo Co., Ltd.) was installed permanently in the center of stomach anterior wall of an adult male mongrel dog, and was used for air-bag insertion.
The fistula-installed dog was abstained from food for not shorter than 18 hours, followed by opening the gastric fistula and washing inside stomach by infusion of saline into stomach, before starting experiment. This procedure was repeated 2 to 3 times as appropriate. The air-bag (maximal volume: about 750 mL) fabricated using a commercially available polyethylene bag was inserted into stomach through gastric fistula and fixed using a silicone plug, followed by connection to barostat instrument and starting measurement under nonrestraint condition. Volume change of the air-bag was recorded on both a recorder and a computer.
After insertion of the air-bag into stomach, the bag was once infused with air up to 500 mL, followed by immediate and complete air evacuation, and starting recording by adjusting initial inner pressure of the air-bag to be 6±2 mmHg. After stabilization for not shorter than 15 minutes, 50 mL of a liquid test meal (12.5 kcal, Besvion^RT from Fujisawa Pharmaceutical Co., Ltd.) dissolved in warm water (30 to 40° C.) was […] administered into stomach. Five minutes after administration of the test meal, a solvent and test agents were administrated intravenously. Mean air-bag volumes (mL) for each 5 minutes before administration of the test meal, along with before and after administration of the test agents were calculated using a computer analyzing system to compare differences in mean air-bag volumes (mL) before and after administration of the test agents.

[2] = known side effect; cited from earlier work
[3] = test system: patient with functional dyspepsia (stomach); test: Barostat test in human; assay type: in vivo
Description: A patient with functional dyspepsia, based on Rome II standard, was fasted overnight (for not shorter than 12 hours). Oral administration of 300 mg of a compound a, hydrochloride, and placebo has been conducted by a responsive doctor of clinical trial. Thirty minutes later, a polyvinyl adhesive plastic bag with dual ducts (1100 mL, maximal diameter: 17 cm, from Meditronic-Synetics Medical Ltd., Enfield, UK) was folded up to a small piece and introduced into stomach through mouth or nose, and the ducts were fixed on chin by an adhesive tape. The location of the bug in fundus of stomach was confirmed by radioscopy.
The polyvinyl tubing was connected to a computer controlled volume-replacement pressure regulator. This regulator can simultaneously monitor pressure and volume with sampling rate of 8 times per second, and also can load volume ramps and pressurizing steps with various rates. Trial subjects were kept in recumbent position and predetermined volume of air (300 mL) was infused for 2 minutes to expand the bug in stomach, and again the air was evacuated completely. After stabilization for 10 minutes, the trial subjects were allowed to keep relaxed by slightly skewing knees on a bed.
After 30 minutes of adaptation period, minimum invasive gastric dilatation pressure (MDP), that is, the minimum pressure to give not less than 30 mL of the bag inner volume, was measured by increasing inner pressure by 1 mmHg per minute. This pressure (MDP) […] equilibrates intraabdominal pressure. Then, pressure was increased from the MDP stepwisely with isobaric expansions by each 2 mmHg. At each pressure increase step, corresponding inner volume of stomach was recorded, and kept for 2 minutes. At the end of each expansion step, patients were asked to express feeling of stimulation at upper abdomen by scores from 0 to 6 with verbal explanation. The expansion procedure was terminated when inner volume of the bag reached to 1000 mL or the patient complained discomfort or soreness (score: 5 or 6).
Further, after 30 minutes of adaptation period, the pressure level was adjusted to the MDP+2 mmHg, and kept for 90 minutes. Thirty minutes later, a mixed liquid diet (200 mL, 300 kcal, protein 13%, carbohydrate 39%, Nutridrink™, Nutricia) was given by oral ingestion, followed by measurement of stomach tension over further 60 minutes.
Average inner volume of the balloon for each 2 minutes expansion period was obtained from the recorded value. […]
To evaluate stomach tension before and after meal, average volume of the balloon was measured continuously at every 5 minutes. The maximum relaxation value was obtained as difference between average volume before meal and the maximum volume after meal among average volumes measured at every 5 minutes after meal.

COc1cc(N)c(Cl)cc1C(=O)NC1CCN(CCCOc2ccc(F)cc2)CC1OC (stereo not drawn) [Cisapride, reference compound]
Volume change of Air-bag ([1]; 0.3 mg/kg): 3.6 ± 25.0 mL | Extension of Q-T interval (adverse effect) [2]: serious side effect such as extension of Q-T interval

COc1cc(O)c(C(=O)Nc2cc(C(=O)NCCN(C(C)C)C(C)C)co2)cc1OC.O=C(O)/C=C\C(=O)O [Compound d, Maleate, 2-[N-(4,5-dimethoxy-2-hydroxybenzoyl)amino]-4-[(2-diisopropyl-aminoethyl)aminocarbonyl]furan]
Volume increase of air-bag, ΔmL ([1]; 3 mg/kg i.v.): 11.4 mL | Activity of alleviating impaired gastric accommodation (in words) [1]: excellent activity of alleviating impaired gastric accommodation

COc1cc(O)c(C(=O)Nc2nc(C(=O)NCCN(C(C)C)C(C)C)cs2)cc1OC [Compound a, hydrochloride, 2-[N-(4,5-dimethoxy-2-hydroxybenzoyl)amino]-4-[(2-diisopropylaminoethyl)aminocarbonyl]-1,3-thiazole]
Volume change of Air-bag ([1]; 3 mg/kg): 50.8 ± 16.7 mL | Volume change of Air-bag ([1]; 3 mg/kg, listed as compound a, hydrochloride): 50.8 mL | Expansion effect compared with cisapride ([1]; compound a 3 mg/kg i.v. vs cisapride 0.3 mg/kg i.v.): surpassed that of cisapride | Effect on maximum relaxation value of stomach after meal (in words) ([3]; 300 mg, p.o.): significantly increased | Change in max. relaxation volume ([3]; 300 mg, p.o., N=17, after meal): 24.3 ± 172.3 mL | Max. relaxation volume after treatment ([3]; 300 mg, p.o., N=17, after meal): 313.4 mL | Max. relaxation volume before treatment ([3]; baseline of the 300 mg p.o. group, N=17, after meal): 295.5 mL

COc1ccc(C(=O)Nc2nc(C(=O)NCCN(C(C)C)C(C)C)cs2)cc1OC [Compound c, hydrochloride, 2-[N-(4,5-dimethoxy-benzoyl)amino]-4-[(2-diisopropylaminoethyl)amino-carbonyl]-1,3-thiazole]
Volume increase of air-bag, ΔmL ([1]; 1 mg/kg i.v.): 58.2 mL | Activity of alleviating impaired gastric accommodation (in words) [1]: excellent activity of alleviating impaired gastric accommodation

COc1cc(Cl)c(C(=O)Nc2nc(C(=O)NCCN(C(C)C)C(C)C)cs2)cc1OC [Compound b, Maleate, 2-[N-(2-chloro-4,5-dimethoxybenzoyl)-amino]-4-[(2-diisopropylaminoethyl)aminocarbonyl]-1,3-thiazole]
Volume increase of air-bag, ΔmL ([1]; 1 mg/kg i.v.): 29.7 mL | Activity of alleviating impaired gastric accommodation (in words) [1]: excellent activity of alleviating impaired gastric accommodation
